Values quoted from earlier work in patent US20220184070A1, “LOW-DOSE TRIPLE COMBINATION FORMULATION” (The George Institute for Global Health, priority 2019, published 2022).
Marks after values point to notes of the source that are not given here.

Tested on: plasma glucose

N[C@@H](CC(=O)N1CCn2c(nnc2C(F)(F)F)C1)Cc1cc(F)c(F)cc1F [Sitagliptin, sitagliptin]
Percentage change in plasma glucose from pre-prandial adjusted for placebo, at 2 h PPG (single dose 100 mg monotherapy, published studies): −6.3% | Difference in mean 2 h post-prandial glucose (PPG) vs placebo (single dose 100 mg, 180 min, FIG. 4): ~1 mmol/L | Maximum difference in plasma glucose between sitagliptin and placebo (single dose 100 mg, at 120 min post-dose (90 min post-meal), FIG. 4): 1.5 mmol/L | Percentage change in plasma glucose from pre-prandial adjusted for placebo, Maximum (single dose 100 mg, maximum achieved at 1.5 h post-prandial, published studies): −20.3^a % | Time at which maximum PPG and serum insulin were achieved (single dose 100 mg, post-dose (0.5 h post-meal), FIG. 4): ~1 h
